Source: the supplement of paper PMC10733146

Experiments:
Assay in all cases: viability relative to DMSO control (fraction); higher = less drug effect (more viable cells)
Details in all cases: 48 h
[1] = test system: primary AML patient cells (S027)
In short: (§1)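 The cells were primary mononuclear tumour cells, either fresh or cryopreserved, isolated by Ficoll from blood or bone marrow or derived from processed lymph node. Each well of a 384-well plate received 4 × 10^4 cells onto compounds pre-plated at five concentrations, with one well per concentration. The medium was RPMI-1640 with penicillin/streptomycin, L-glutamine and human serum, and plates stood at 37 °C and 5% CO2 for 48 h. Viability is reported as CellTiter-Glo luminescence relative to the median of 16 inner DMSO wells.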

[2] = test system: primary AML patient cells (S056)
In short: as §1

[3] = test system: primary AML patient cells (S085)
In short: as §1

[4] = test system: primary CLL patient cells (S031)
In short: as §1

[5] = test system: primary CLL patient cells (S043)
In short: as §1

[6] = test system: primary MCL patient cells (S041)
In short: as §1

[7] = test system: primary AML patient cells (S081)
In short: as §1

[8] = test system: primary AML patient cells (S037)
In short: as §1

[9] = test system: primary AML patient cells (S012)
In short: as §1

[10] = test system: primary T-PLL patient cells (S008)
In short: as §1

[11] = test system: primary MCL patient cells (S063)
In short: as §1

[12] = test system: primary AML patient cells (S007)
In short: as §1

[13] = test system: primary MCL patient cells (S068)
In short: as §1

[14] = test system: primary AML patient cells (S011)
In short: as §1

[15] = test system: primary BL patient cells (S005)
In short: as §1

CCc1cnn2c(NCc3ccc[n+]([O-])c3)cc(N3CCCC[C@H]3CCO)nc12 [Dinaciclib]
viability ([1]; 0.0016 µM): 1.05 | viability ([1]; 0.008 µM): 0.12 | viability ([1]; 0.04 µM): 0.0422 | viability ([1]; 0.2 µM): 0.0393 | viability ([1]; 1 µM): 0.0395 | viability ([2]; 0.0016 µM): 0.898 | viability ([2]; 0.008 µM): 0.0944 | viability ([2]; 0.04 µM): 0.101 | viability ([2]; 0.2 µM): 0.0868 | viability ([2]; 1 µM): 0.0937 | viability ([3]; 0.0016 µM): 1 | viability ([3]; 0.008 µM): 0.11 | viability ([3]; 0.04 µM): 0.0634 | viability ([3]; 0.2 µM): 0.0552 | viability ([3]; 1 µM): 0.0573 | viability ([4]; 0.0016 µM): 0.744 | viability ([4]; 0.008 µM): 0.0197 | viability ([4]; 0.04 µM): 0.018 | viability ([4]; 0.2 µM): 0.0169 | viability ([4]; 1 µM): 0.0188 | viability ([5]; 0.0016 µM): 1.08 | viability ([5]; 0.008 µM): 0.0742 | viability ([5]; 0.04 µM): 0.0345 | viability ([5]; 0.2 µM): 0.0401 | viability ([5]; 1 µM): 0.0459 | viability ([6]; 0.0016 µM): 0.938 | viability ([6]; 0.008 µM): 0.0691 | viability ([6]; 0.04 µM): 0.0382 | viability ([6]; 0.2 µM): 0.0378 | viability ([6]; 1 µM): 0.0402 | viability ([7]; 0.0016 µM): 1.02 | viability ([7]; 0.008 µM): 0.0549 | viability ([7]; 0.04 µM): 0.0232 | viability ([7]; 0.2 µM): 0.0223 | viability ([7]; 1 µM): 0.0211 | viability ([8]; 0.0016 µM): 1.04 | viability ([8]; 0.008 µM): 0.903 | viability ([8]; 0.04 µM): 0.39 | viability ([8]; 0.2 µM): 0.38 | viability ([8]; 1 µM): 0.374 | viability ([9]; 0.0016 µM): 1.1 | viability ([9]; 0.008 µM): 0.473 | viability ([9]; 0.04 µM): 0.0686 | viability ([9]; 0.2 µM): 0.0607 | viability ([9]; 1 µM): 0.0676 | viability ([10]; 0.0016 µM): 0.971 | viability ([10]; 0.008 µM): 0.736 | viability ([10]; 0.04 µM): 0.127 | viability ([10]; 0.2 µM): 0.128 | viability ([10]; 1 µM): 0.143 | viability ([11]; 0.0016 µM): 1 | viability ([11]; 0.008 µM): 0.0229 | viability ([11]; 0.04 µM): 0.0173 | viability ([11]; 0.2 µM): 0.0173 | viability ([11]; 1 µM): 0.0157 | viability ([12]; 0.0016 µM): 0.637 | viability ([12]; 0.008 µM): 0.175 | viability ([12]; 0.04 µM): 0.118 | viability ([12]; 0.2 µM): 0.12 | viability ([12]; 1 µM): 0.141 | viability ([13]; 0.0016 µM): 0.678 | viability ([13]; 0.008 µM): 0.0624 | viability ([13]; 0.04 µM): 0.0361 | viability ([13]; 0.2 µM): 0.0363 | viability ([13]; 1 µM): 0.0424 | viability ([14]; 0.0016 µM): 1.23 | viability ([14]; 0.008 µM): 0.155 | viability ([14]; 0.04 µM): 0.0402 | viability ([14]; 0.2 µM): 0.0329 | viability ([14]; 1 µM): 0.0263 | viability ([15]; 0.0016 µM): 0.866 | viability ([15]; 0.008 µM): 0.792 | viability ([15]; 0.04 µM): 0.848 | viability ([15]; 0.2 µM): 0.867 | viability ([15]; 1 µM): 1.01
